The test addresses adenosine A2A receptor (Homo sapiens, UniProt P29274). Nature of the test: adenosine A2A receptor agonist assay (method of Murphree et al.). The format is binding. The conditions noted are these: method described by Murphree et al., Mol Pharmacol, Vol. 61, pp. 455-462 (2002). An excerpt:
Compounds of formula (I) and their pharmaceutically acceptable salts are useful as pharmaceuticals. In particular, they activate the adenosine A2A receptor, i.e., they act as A2A receptor agonists.

Sequence of adenosine A2A receptor (P29274 whole entry): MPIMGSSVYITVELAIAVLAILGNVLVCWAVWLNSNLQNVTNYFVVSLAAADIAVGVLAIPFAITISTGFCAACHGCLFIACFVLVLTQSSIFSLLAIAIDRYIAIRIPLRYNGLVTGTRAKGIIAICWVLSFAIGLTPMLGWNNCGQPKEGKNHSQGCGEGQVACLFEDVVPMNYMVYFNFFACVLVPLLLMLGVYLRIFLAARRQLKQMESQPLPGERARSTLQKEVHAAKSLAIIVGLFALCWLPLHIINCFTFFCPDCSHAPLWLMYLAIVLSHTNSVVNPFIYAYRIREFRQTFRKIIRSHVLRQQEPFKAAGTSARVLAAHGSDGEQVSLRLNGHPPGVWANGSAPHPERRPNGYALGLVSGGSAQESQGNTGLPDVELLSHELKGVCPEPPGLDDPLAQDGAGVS

With `CCC(=O)N[C@H]1C[C@@H](n2cnc3c(NCC(c4ccccc4)c4ccccc4)nc(N4CC[C@@H](Nc5nc(Cl)nc6c5ncn6[C@@H]5C[C@H](NC(=O)CC)[C@@H](O)[C@H]5O)C4)nc32)[C@H](O)[C@@H]1O` [Example 1, {(1S,2R,3S,4R)-4-[2-{(R)-3-[2-Chloro-9-((1R,2S,3R,4S)-2,3-dihydroxy-4-propionylamino-cyclopentyl)-9H-purin-6-ylamino]-pyrrolidin-1-yl}-6-(2,2-diphenyl-ethylamino)-purin-9-yl]-2,3-dihydroxy-cyclopentyl}-propionamide], affinity was put at a Ki of 760 nM.

The values above are taken from patent US8188100B2, “Adenosine derivatives as A2A receptor agonists” (Novartis AG, priority 2006, dated 2012).
